Experimental data from ChEMBL document CHEMBL2401712, “Fused thiazolyl alkynes as potent mGlu5 receptor positive allosteric modulators” (Bioorg Med Chem Lett, 2013).

Columns and labels:
Format in all cases: cell-based
[1] = target: T1, Metabotropic glutamate receptor 5 (Homo sapiens, UniProt P41594); experiment: Negative allosteric modulation of human mGlu5 receptor expressed in HEK293 cells assessed as inhibition of L-glutamate-induced activity after 1 hr by FLIPR assay relative to control; set-up: concentration or dose not given beside the values; conditions: concentration not given here
Target sequence in this assay (P41594 21-1212 limits assumed): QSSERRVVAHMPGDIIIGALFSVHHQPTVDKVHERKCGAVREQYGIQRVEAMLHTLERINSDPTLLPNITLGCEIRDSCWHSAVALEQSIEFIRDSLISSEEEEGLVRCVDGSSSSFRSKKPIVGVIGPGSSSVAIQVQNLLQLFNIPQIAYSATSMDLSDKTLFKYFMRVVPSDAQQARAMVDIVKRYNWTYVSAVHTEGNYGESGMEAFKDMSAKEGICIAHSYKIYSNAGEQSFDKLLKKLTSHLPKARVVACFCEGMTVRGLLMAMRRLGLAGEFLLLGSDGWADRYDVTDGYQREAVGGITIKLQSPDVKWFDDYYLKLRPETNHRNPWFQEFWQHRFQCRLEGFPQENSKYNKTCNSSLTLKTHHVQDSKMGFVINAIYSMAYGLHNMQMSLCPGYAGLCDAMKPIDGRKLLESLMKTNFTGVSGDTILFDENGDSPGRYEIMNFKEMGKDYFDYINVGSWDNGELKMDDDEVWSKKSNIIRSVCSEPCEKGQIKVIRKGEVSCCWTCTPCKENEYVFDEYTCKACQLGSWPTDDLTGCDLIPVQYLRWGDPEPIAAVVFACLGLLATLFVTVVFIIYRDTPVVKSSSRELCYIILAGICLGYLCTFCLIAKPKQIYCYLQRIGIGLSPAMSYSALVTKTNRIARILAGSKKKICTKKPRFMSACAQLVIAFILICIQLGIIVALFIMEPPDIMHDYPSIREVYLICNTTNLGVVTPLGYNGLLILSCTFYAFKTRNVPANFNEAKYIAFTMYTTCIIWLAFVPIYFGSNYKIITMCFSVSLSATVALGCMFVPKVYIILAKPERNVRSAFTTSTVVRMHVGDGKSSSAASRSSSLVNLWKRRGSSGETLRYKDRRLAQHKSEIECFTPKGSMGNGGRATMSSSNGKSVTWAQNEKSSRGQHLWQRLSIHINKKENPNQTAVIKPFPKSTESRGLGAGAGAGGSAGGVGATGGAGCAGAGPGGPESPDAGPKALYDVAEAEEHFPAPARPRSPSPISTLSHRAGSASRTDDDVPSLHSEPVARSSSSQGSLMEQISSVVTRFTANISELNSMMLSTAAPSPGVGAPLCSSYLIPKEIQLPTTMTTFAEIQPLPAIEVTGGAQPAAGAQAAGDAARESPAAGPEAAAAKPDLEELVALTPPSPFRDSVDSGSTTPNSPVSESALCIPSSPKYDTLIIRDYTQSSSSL

[2] = target: T1, Metabotropic glutamate receptor 5; experiment: Negative allosteric modulation of human mGlu5 receptor expressed in HEK293 cells assessed as inhibition of L-glutamate-induced activity after 1 hr by FLIPR assay
Target sequence in this assay (P41594 whole entry): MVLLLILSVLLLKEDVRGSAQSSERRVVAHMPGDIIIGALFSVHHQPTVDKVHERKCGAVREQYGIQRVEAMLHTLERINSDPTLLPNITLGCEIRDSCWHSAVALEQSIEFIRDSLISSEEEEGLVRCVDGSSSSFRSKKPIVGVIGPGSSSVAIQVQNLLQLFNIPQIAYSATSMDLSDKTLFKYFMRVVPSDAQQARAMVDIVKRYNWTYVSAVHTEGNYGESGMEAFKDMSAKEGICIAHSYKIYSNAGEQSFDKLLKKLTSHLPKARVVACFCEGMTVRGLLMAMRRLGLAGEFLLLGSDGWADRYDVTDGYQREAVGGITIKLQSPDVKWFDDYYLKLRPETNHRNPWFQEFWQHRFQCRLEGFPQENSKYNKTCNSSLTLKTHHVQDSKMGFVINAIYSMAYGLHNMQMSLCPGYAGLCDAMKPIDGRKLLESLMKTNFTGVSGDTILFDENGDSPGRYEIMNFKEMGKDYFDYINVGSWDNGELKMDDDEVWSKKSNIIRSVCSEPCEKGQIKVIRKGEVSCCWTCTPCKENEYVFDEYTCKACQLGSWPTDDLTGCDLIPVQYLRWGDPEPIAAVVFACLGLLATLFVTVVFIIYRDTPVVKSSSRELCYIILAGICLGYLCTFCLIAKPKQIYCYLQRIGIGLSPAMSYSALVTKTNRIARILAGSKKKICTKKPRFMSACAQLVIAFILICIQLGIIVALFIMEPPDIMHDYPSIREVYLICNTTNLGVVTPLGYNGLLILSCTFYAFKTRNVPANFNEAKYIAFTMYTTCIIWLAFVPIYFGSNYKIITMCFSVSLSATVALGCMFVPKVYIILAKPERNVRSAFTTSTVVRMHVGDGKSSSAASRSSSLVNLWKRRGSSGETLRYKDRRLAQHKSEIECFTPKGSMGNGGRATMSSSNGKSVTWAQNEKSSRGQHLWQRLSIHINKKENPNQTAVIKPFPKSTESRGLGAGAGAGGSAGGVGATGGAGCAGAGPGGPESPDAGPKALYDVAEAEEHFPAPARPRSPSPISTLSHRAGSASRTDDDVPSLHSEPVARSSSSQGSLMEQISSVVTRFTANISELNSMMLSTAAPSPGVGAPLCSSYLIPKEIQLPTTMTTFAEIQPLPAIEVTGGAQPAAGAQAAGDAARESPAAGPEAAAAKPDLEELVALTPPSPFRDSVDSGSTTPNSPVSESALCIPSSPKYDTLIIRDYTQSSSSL

[3] = target: T1, Metabotropic glutamate receptor 5; experiment: Positive allosteric modulation of human mGlu5 receptor expressed in HEK293 cells assessed as potentiation of L-glutamate-induced activity after 1 hr by FLIPR assay relative to control
Target sequence in this assay (P41594 21-1212 limits assumed): as the sequence (P41594 21-1212 limits assumed) above

[4] = target: T1, Metabotropic glutamate receptor 5; experiment: Positive allosteric modulation of human mGlu5 receptor expressed in HEK293 cells assessed as potentiation of L-glutamate-induced activity after 1 hr by FLIPR assay
Target sequence in this assay (P41594 whole entry): as the sequence (P41594 whole entry) above

Compound	inhibition [1] [%]	IC50 [2] [nM]	Emax [3] [%]	EC50 [4] [nM]
CC1CC(C(=O)N2CCc3nc(C#Cc4cccc(F)c4)sc3C2)C1 (stereo unspecified)	19	> 10000	87	17
O=C(C1CCOC1)N1CCc2nc(C#Cc3ccccc3)sc2C1 (stereo unspecified)	45	> 10000	96	130
O=C(c1cccc(Cl)c1)N1CCc2nc(C#Cc3ccccc3)sc2C1	26	> 10000	170	8.7
COc1ccccc1C#Cc1nc2c(s1)C(=O)NCC2	–	> 10000	44	> 10000
O=C(c1cccc(C(F)(F)F)c1)N1CCc2nc(C#Cc3ccccc3)sc2C1	12	> 10000	170	11
O=C1NCCc2nc(C#Cc3cccnc3)sc21	–	> 10000	120	51
O=S(=O)(C1CCCCC1)N1CCc2nc(C#Cc3ccccc3)sc2C1	81	480	-17	> 10000
CN(C)S(=O)(=O)N1CCc2nc(C#Cc3ccccc3)sc2C1	71	5.7	-6	> 10000
O=S(=O)(N1CCCCC1)N1CCc2nc(C#Cc3ccccc3)sc2C1	86	780	6	> 10000
Cc1cccc(C#Cc2nc3c(s2)C(=O)NCC3)c1	–	> 10000	50	> 10000
CC(C)CCN1CCc2nc(C#Cc3ccccc3)sc2C1	–	> 10000	180	100
O=C(N1CCc2nc(C#Cc3ccccc3)sc2C1)N1CC(F)C1	9	> 10000	27	> 10000
CC1CC(C(=O)N2CCc3nc(C#Cc4ccccc4)sc3C2)C1 (stereo unspecified)	13	> 10000	120	81
CC(C)S(=O)(=O)N1Cc2nc(C#Cc3ccccc3)sc2C1	74	140	-35	> 10000
Cc1cccc(C(=O)N2CCc3nc(C#Cc4ccccc4)sc3C2)n1	19	> 10000	120	160
O=C(C1CCC(F)(F)CC1)N1CCc2nc(C#Cc3ccccc3)sc2C1	10	> 10000	190	70
COc1cccc(C(=O)N2CCc3nc(C#Cc4ccccc4)sc3C2)c1	6.7	> 10000	150	29
N#Cc1cccc(C(=O)N2CCc3nc(C#Cc4ccccc4)sc3C2)c1	16	> 10000	150	71
O=S(=O)(N1CCCC1)N1CCc2nc(C#Cc3ccccc3)sc2C1	78	36	-9	> 10000
O=C1NCCc2nc(C#Cc3ccccc3F)sc21	–	> 10000	320	1500
O=C(C1CCCCC1)N1CCc2nc(C#Cc3ccccc3)sc2C1	–	> 10000	153	167
O=C1NCCc2nc(C#Cc3cccc(F)c3)sc21	–	> 10000	310	290
O=S(=O)(N1CCOCC1)N1CCc2nc(C#Cc3ccccc3)sc2C1	89	13	1.5	> 10000
O=C1c2sc(C#Cc3ccccc3)nc2CN1C1CCCC1	–	> 10000	150	2.5
Fc1cccc(C#Cc2nc3c(s2)CN(C2CCOC2)CC3)c1 (stereo unspecified)	91	400	-47	> 10000

Compound	inhibition [1] [%]	IC50 [2] [nM]	Emax [3] [%]	EC50 [4] [nM]
O=C1c2sc(C#Cc3ccccc3)nc2CN1C1CC1	59	23	11	> 10000
O=C(C1CC1)N1CCc2nc(C#Cc3ccccc3)sc2C1	61	290	-13	> 10000
O=C(N1CCCCC1)N1CCc2nc(C#Cc3ccccc3)sc2C1	–	> 10000	120	75
O=C(C1CCCC1)N1CCc2nc(C#Cc3ccccc3)sc2C1	42	> 10000	280	19
O=C(C1CCOCC1)N1CCc2nc(C#Cc3ccccc3)sc2C1	–	> 10000	120	290
O=C([C@H]1CC2CCC1C2)N1CCc2nc(C#Cc3ccccc3)sc2C1 (stereo partly specified)	8	> 10000	280	18
O=C(C1CC12CCC2)N1CCc2nc(C#Cc3ccccc3)sc2C1 (stereo unspecified)	10	> 10000	95	3.9
Cc1nc(C(=O)N2CCc3nc(C#Cc4ccccc4)sc3C2)cs1	3.7	> 10000	110	220
CCN1CCc2nc(C#Cc3ccccc3)sc2C1	51	1200	-6	> 10000
CN1CCc2nc(C#Cc3cccc(F)c3)sc2C1	6	> 10000	-8	> 10000
O=C1NCCc2nc(C#Cc3ccc(F)cc3)sc21	–	> 10000	310	5200
O=C(C1CCCCO1)N1CCc2nc(C#Cc3ccccc3)sc2C1 (stereo unspecified)	35	> 10000	100	320
O=C1NCCc2nc(C#Cc3ccccc3)sc21	–	> 10000	243	112
O=C(C1CCCO1)N1CCc2nc(C#Cc3ccccc3)sc2C1 (stereo unspecified)	-1	> 10000	89	790
O=S(=O)(N1CCCCC1)N1Cc2nc(C#Cc3ccccc3)sc2C1	–	> 10000	89	250
CC(C)S(=O)(=O)N1CCc2nc(C#Cc3ccccc3)sc2C1	75	11	-4	> 10000
Fc1cccc(C#Cc2nc3c(s2)CN(C2CCC2)CC3)c1	91	200	-40	> 10000
CCN1CCc2nc(C#Cc3cccc(F)c3)sc2C1	87	72	-2	> 10000
CN1CCC(C(=O)N2CCc3nc(C#Cc4ccccc4)sc3C2)CC1	–	> 10000	70	1200
CC1CC1C(=O)N1CCc2nc(C#Cc3ccccc3)sc2C1 (stereo unspecified)	6.3	> 10000	42	9.4
Cc1cc(C(=O)N2CCc3nc(C#Cc4ccccc4)sc3C2)no1	–	> 10000	71	1600
Cc1cccc(C(=O)N2CCc3nc(C#Cc4ccccc4)sc3C2)c1	–	> 10000	170	99
O=S(=O)(C1CCCCC1)N1Cc2nc(C#Cc3ccccc3)sc2C1	–	> 10000	110	150
O=C(c1cccc(F)c1)N1CCc2nc(C#Cc3ccccc3)sc2C1	–	> 10000	160	30
O=C1NCCc2nc(C#Cc3cccc(Cl)c3)sc21	–	> 10000	120	2500
